Non-standard residues stand in square brackets, D forms with d. Residues, ends and D or L forms follow the SMILES beside them. No end group written: not given here. *: point of attachment. Nle = CCCC[C@H](N)C(=O)O; Cbz = O=C(OCc1ccccc1)*
Assays:
β-catenin [1] = test: β-catenin Western blot in Balb/C 3T3 cells treated with ubiquitin-proteasome inhibitors; format: cell-based, mouse; conditions: treated 4 hours, FIG. 17A
Description: (§1) Lactacystin A (dissolved in water at 0.4 mg/ml was used at a final concentration of 4 μg/ml) and MG-132 (used at 10 or 20 μM) were purchased from Calbiochem (La Jolla, Calif.).
Polyacrylamide Gel Electrophoresis and Immunoblotting: Equal amounts of total cell protein were separated by SDS PAGE, electro-transferred to nitrocellulose and incubated with monoclonal antibodies. The antigens were visualized by the enhanced chemiluminescence (Amersham, Buckinghampshire, U.K). In some experiments, cells were fractionated into Triton X-100-soluble and -insoluble fractions. Briefly, cells cultured on 35 mm dishes were incubated in 0.5 ml buffer containing 50 mM MES, pH 6.8, 2.5 mM EGTA, 5 mM MgCl2 and 0.5% Triton-X-100, at room temperature for 3 minutes. The Triton X-100-soluble fraction was removed, and the insoluble fraction was scraped into 0.5 ml of the same buffer. Equal volumes of the two fractions were analyzed by SDS PAGE followed by immunoblotting with the various antibodies.

plakoglobin = test: Plakoglobin Western blot in KTCTL60-PG cells treated with proteasome inhibitor; format: cell-based, human; conditions: 10 and 20 μM, FIG. 17B
Description: (§2) Cell Culture and Transfections: Canine kidney epithelial cells MDCK, human fibrosarcoma HT1080, 293-T human embryonic kidney cells, Balb/C mouse 3T3 and human colon carcinoma SW480 cell lines were cultured in Dulbecco's modified Eagle's medium supplemented with 10% calf serum (Gibco, Grand Island, N.Y.) at 37° C. in the presence of 7% CO2. The human renal carcinoma cell line KTCTL60 was grown in RPMI medium and 10% calf serum. Cells were transiently transfected with the cDNA constructs described below, using Ca^2+-phosphate or lipofectamine (Gibco) and the expression of the transgene was assessed between 24 and 48 hours after transfection. In some experiments, the expression of the stably transfected NH2 terminus-deleted β-catenin (Δ57) was enhanced in HT1080 cells by overnight treatment with 2 mM sodium butyrate.
as §1
(§3) Polyacrylamide Gel Electrophoresis and Immunoblotting: Equal amounts of total cell protein were separated by SDS PAGE, electro-transferred to nitrocellulose and incubated with monoclonal antibodies. […] Equal volumes of the two fractions were analyzed by SDS PAGE followed by immunoblotting with the various antibodies.

β-catenin [2] = test: β-catenin Western blot in KTCTL60 cells treated with proteasome inhibitor; format: cell-based, human; conditions: 10 and 20 μM, FIG. 17B
Description: as §2, §1, §3

HT1080 cells = test: Butyrate induction in HT1080 cells stably expressing ΔN57 β-catenin; format: cell-based, human
Description: as §2, with “In some experiments, the expression of the stably transfected NH2 terminus-deleted β-catenin (Δ57) was enhanced in HT1080 cells by overnight treatment with 2 mM sodium butyrate.” left out
Immunofluorescence Microscopy: Cells cultured on glass coverslips were fixed with 3.7% paraformaldehyde in PBS and permeabilized with 0.5% Triton X-100. […] Images of the fluorescent cells were recorded with a cooled, scientific grade CCD camera (Photometrics, Tucson, Ariz.). Integrated fluorescent intensities in transfected and nontransfected cells were determined, after the background was subtracted.
as §3

β-catenin [3] = target: T1, β-catenin (Cricetulus griseus, UniProt G3H996); test: β-catenin level in CHO cells by Western blot; format: cell-based; conditions: CHO cells transiently transfected with GFP-cadherin constructs, FIG. 7B
T1 construct: resulting from the stabilization of the endogenous β-catenin by the transfected cadherin derivatives; endogenous in cells; host or cells: CHO cells, stably or transiently transfected with cadherin derivatives only
T1 sequence (G3H996 1-781): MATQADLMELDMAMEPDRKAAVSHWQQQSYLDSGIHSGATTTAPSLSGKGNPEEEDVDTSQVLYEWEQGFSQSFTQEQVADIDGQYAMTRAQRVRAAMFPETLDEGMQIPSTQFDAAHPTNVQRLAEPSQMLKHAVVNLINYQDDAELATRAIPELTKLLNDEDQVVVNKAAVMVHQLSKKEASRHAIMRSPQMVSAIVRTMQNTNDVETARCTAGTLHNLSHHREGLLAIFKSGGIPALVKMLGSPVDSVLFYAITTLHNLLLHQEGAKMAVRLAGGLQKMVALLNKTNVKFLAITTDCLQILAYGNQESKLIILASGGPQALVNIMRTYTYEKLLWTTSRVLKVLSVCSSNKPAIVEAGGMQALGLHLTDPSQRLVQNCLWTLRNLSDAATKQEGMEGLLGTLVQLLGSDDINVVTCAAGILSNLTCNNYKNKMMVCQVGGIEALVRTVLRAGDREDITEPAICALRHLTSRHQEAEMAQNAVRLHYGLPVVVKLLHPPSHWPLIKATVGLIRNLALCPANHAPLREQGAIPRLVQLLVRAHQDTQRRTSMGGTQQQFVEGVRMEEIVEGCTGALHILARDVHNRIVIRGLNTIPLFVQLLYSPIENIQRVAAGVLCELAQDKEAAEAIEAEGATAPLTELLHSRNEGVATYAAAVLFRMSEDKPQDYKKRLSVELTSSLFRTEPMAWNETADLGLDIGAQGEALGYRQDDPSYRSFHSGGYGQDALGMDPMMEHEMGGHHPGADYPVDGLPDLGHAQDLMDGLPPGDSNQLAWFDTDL
Description: (§4) Cell culture and transfections: CHO and SW480 human colon carcinoma cells were cultured in Dulbecco's modified Eagle's medium containing 10% fetal calf serum in an 8% CO2 incubator at 37° C. Transfections were performed using Lipofectamine (Gibco, BRL, USA) according to the manufacturer's instructions. Stably transfected CHO clones were generated by co-transfection with a plasmid encoding the puromycin resistance gene. Two days after transfection, cells were replated in the presence of 10 μg/ml puromycin (Sigma, Holon, Israel). Stable clones were isolated 2 weeks later and tested for the expression of the transgene by Western blot analysis.
Immunoblotting and immunoprecipitation: The following antibodies were used: polyclonal pan-cadherin or monoclonal anti cadherin (CH-19) and polyclonal anti β-catenin antibodies were from Sigma (Holon, Israel). Monoclonal anti β-catenin, 5H10 (from M. Wheelock), anti IL2Rα (from UBI), anti flag (M2, from IBI), anti HA (clone 12CA5, from Boehringer Mannheim, Germany), anti GFP (polyclonal, from Clontech, Palo Alto, Calif.), anti LEF-1 (polyclonal, kindly provided by Dr. R. Grosschedl). Secondary antibodies for Western blotting were goat anti rabbit or anti mouse conjugated to HRP (Amersham, Buckinghampshire, UK), and for immunofluorescence analysis the secondary antibodies were FITC-goat anti mouse (Cappel, USA) or rhodamine-anti rabbit antibodies (from Jackson Immuno-Research, West Grove, Pa.). Cells were harvested in Laemmli's sample buffer and equal amounts of total cell protein from the different clones, or from transient transfections, were separated by SDS-PAGE, electrotransferred to nitrocellulose and incubated with the different antibodies. For immunoprecipitation, cells were harvested in IP buffer (20 mM Tris pH 8.0, 1% Triton X-100, 140 mM NaCl, 10% glycerol, 1 mM EGTA, 1.5 mM MgCl2, 1 mM DTT, 1 mM sodium vanadate, and 50 μg/ml PMSF). Equal amounts (500-700 μg) of cell protein were incubated with 1 μl of the relevant antibody for 2 hours at 4° C., followed by incubation with 20 μl of protein A+G/agarose beads (Santa Cruz Biotechnologies, Santa Cruz, Calif.) for an additional 2 hours at 4° C. The agarose beads were washed with 20 mM Tris pH 8.0, 150 mM NaCl, and 0.5% NP-40, and the immune complexes recovered by boiling in Laemmli's sample buffer and resolved by SDS-PAGE.

[4] = tested on: β-catenin-mediated transactivation; test: TOPFLASH luciferase transactivation in SW480 cells (Example 1); format: cell-based, human; conditions: SW480 cells, GFP-fused cadherin tail constructs, FIG. 7C
Description: as §4
Transactivation assays: CHO cells were transfected with TOPFLASH or FOPFLASH vectors (van de Wetering et al., 1997, ibid) and with pCDNA3 coding for β-galactosidase to normalize for transfection efficiency. The transfection mixture also contained either β-catenin, LEF-1 or cadherin derivatives in different combinations, as indicated. SW480 cells were transfected with TOPFLASH and cadherin derivatives. After 48 hours, cells were harvested and tested for luciferase and β-galactosidase activities as follows: Cells were washed 5 times with PBS, resuspended in PM-2 buffer (33 mM NaH2PO4, 66 mM Na2HPO4, 0.1 mM MnCl2, 2 mM MgSO4, 40 mM β-mercaptoethanol) and lysed by 5 cycles of freezing and thawing. Aliquots containing equal amounts of protein were incubated with O-Nitrophenyl-β-D-galactopyranoside (ONPG) at 37° C. until a yellow color appeared. The reactions were stopped with 1 M Na2CO3 and the absorbance at 420 nm was determined. Identical aliquots were tested for luciferase activity using luciferine buffer (100 mM Tris-O-Acetate pH 7.8, 10 mM Mg-O-Acetate, 1 mM EDTA, 74 μM luciferine (Boehringer Mannheim, Germany) and 2.22 mM ATP, pH 7.0). The luciferase reaction was monitored by a TD-20e luminometer (Turner, USA) and normalized for the β-galactosidase activity.
Distribution of N-cadherin derivatives and the effect on β-catenin transactivation in SW480 cells: SW480 colon carcinoma cells express mutant APC, low levels of E-cadherin and relatively high levels of free β-catenin. These cells also display very significant β-catenin-mediated transcription after transfection with TOPFLASH (FIG. 6A, lane 1). To determine the effect of cadherin on this β-catenin-driven transactivation, each of the three N-cadherin derivatives was transfected together with TOPFLASH into SW480 cells and luciferase activity determined. […] The most efficient inhibitor of this transactivation was the cadherin tail construct (FIG. 6A, lane 4), which inhibited the reporter gene by more than 85%. Full-length N-cadherin and the IL2R/N-cadherin chimera decreased the activity of the reporter by about 70% and 50%, respectively.

Compound	effect on β-catenin (Western blot) (β-catenin [1])	stabilization of β-catenin against degradation (β-catenin [3])	inhibition of luciferase activity (LEF-1-driven transactivation) [4]	other results
CCCC[C@@H](C=O)NC(=O)[C@H](CC(C)C)NC(=O)[C@H](CC(C)C)NC(C)=O [ALLN, N-Acetyl-Leu-Leu-Norleucinal] (Ac-Leu-Leu-[Nle]-aldehyde)	appearance of higher molecular weight β-catenin forms	–	–	–
CC(=O)N[C@@H](CSC(=O)[C@]1([C@@H](O)C(C)C)NC(=O)[C@H](C)[C@@H]1O)C(=O)O [Lactacystin]	appearance of higher molecular weight β-catenin forms	–	–	–
CC(C)C[C@@H](C=O)NC(=O)[C@H](CC(C)C)NC(=O)[C@H](CC(C)C)NC(=O)OCc1ccccc1 [MG-132] (Cbz-Leu-Leu-Leu-aldehyde)	appearance of higher molecular weight β-catenin forms	–	–	effect on plakoglobin level (plakoglobin): moderate increase in plakoglobin; effect on β-catenin content (β-catenin [2]): dramatic elevation in β-catenin content
CCCC(=O)[O-].[Na+] [butyrate, sodium butyrate]	–	–	–	β-catenin localization (HT1080 cells; butyrate-treated, FIG. 14D): dramatic translocation of β-catenin into the nucleus; increase in expression of the transgene (western blot) (HT1080 cells; overnight 2 mM sodium butyrate, data not shown): about 2 fold
E30: E-cadherin tail fragment, amino acids 833-862, fused to GFP	–	ineffective in stabilizing β-catenin against degradation	did not affect β-catenin-mediated transactivation	–
E72: C-terminal 72 amino acids of E-cadherin (813-884) fused to GFP	–	could also stabilize β-catenin	60%	–
N30: N-cadherin tail fragment, amino acids 862-891, fused to GFP (LVFDYEGSGSTAGSLSSLNSSSSGGEQDYD; also: fused to GFP)	–	ineffective in stabilizing β-catenin against degradation	did not affect β-catenin-mediated transactivation	–
N71: C-terminal 71 amino acids of N-cadherin (842-912) fused to GFP	–	could also stabilize β-catenin	70%	–

Reference: US20020045591A1, “Methods and therapeutic compositions for treating cancer” (priority 1998, published 2002)
